Test results from patent publication US20090197880A1 (Genelabs Technologies, Inc., priority 2007, published 2009).

Test: HCV replicon assay (luciferase) in ET (Huh-lucubineo-ET) cell line
Assay type: cell-based
Settings: Hepatitis C virus, inhibition of replication relative to no compound control, ET replicon cells, luciferase 48-72 hours; for inhibition at 5 µM: tested at 5 μM; for inhibition at 10 µM: tested at 10 μM, read-out: % inhition at 10 μM
Text: A cell line, ET (Huh-lucubineo-ET) was used for screening of compounds, or pharmaceutically acceptable salts or solvates, described herein for inhibition of HCV RNA dependent RNA polymerase. The ET cell line was stably transfected with RNA transcripts harboring a I389luc-ubi-neo/NS3-3′/ET; replicon with firefly luciferase-ubiquitin-neomycin phosphotransferase fusion protein and EMCV-IRES driven NS3-5B polyprotein containing the cell culture adaptive mutations (E1202G; T1280I; K1846T) (Krieger at al, 2001 and unpublished). The ET cells were grown in DMEM, supplemented with 10% fetal calf serum, 2 mM Glutamine, Penicillin (100 IU/mL)/Streptomycin (100 μg/mL), 1× nonessential amino acids, and 250 μg/mL G418 (“Geneticin”). They were all available through Life Technologies (Bethesda, Md.). The cells were plated at 0.5−1.0×10^4 cells/well in the 96 well plates and incubated for 24 hrs before adding the test compounds. […] Luciferase activity was measured 48-72 hours later by adding a lysis buffer and the substrate (Catalog number Glo-lysis buffer E2661 and Bright-Glo luciferase system E2620 Promega, Madison, Wis.). Cells should not be too confluent during the assay. Percent inhibition of replication was plotted relative to no compound control. Under the same condition, cytotoxicity of the compounds was determined using cell proliferation reagent, WST-1 (Roche, Germany). The compounds showing antiviral activities, but no significant cytotoxicities were chosen to determine the EC50 and TC50, the effective concentration and toxic concentration at which 50% of the maximum inhibition is observed. For these determinations, 6 dilutions of each compound were used. Compounds were typically diluted 3 fold to span a concentration range of 250 fold. EC50 and similarly TC50 values were calculated by fitting % inhibition at each concentration to the following equation:
% inhibition=100%/[(EC50/[I])^b+1]
where b is Hill's coefficient.

## Fc1ccc(-c2cc(Cn3cc4nc(-c5cccc(F)c5F)nc-4cn3)on2)c(C(F)(F)F)c1 [Compound 101, 2-(2,3-Difluoro-phenyl)-5-[3-(4-fluoro-2-trifluoromethyl-phenyl)-isoxazol-5-ylmethyl]-5H-imidazo[4,5-d]pyridazine]
  inhibition at 5 µM: 80.3%
  inhibition at 10 µM: 92.9%

## CC(C)Oc1ccc(-c2cc(Cn3cc4nc(-c5cccc(F)c5F)nc-4cn3)on2)cc1 [Compound 102, 2-(2,3-Difluoro-phenyl)-5-[3-(4-isopropoxy-phenyl)-isoxazol-5-ylmethyl]-5H-imidazo[4,5-d]pyridazine]
  inhibition at 5 µM: 99.8%
  inhibition at 10 µM: 99.7%

## Fc1cccc(-c2nc3cnn(Cc4cc(-c5ccc(C(F)(F)F)cc5C(F)(F)F)no4)cc-3n2)c1F [Compound 103, 5-[3-(2,4-Bis-trifluoromethyl-phenyl)-isoxazol-5-ylmethyl]-2-(2,3-difluoro-phenyl)-5H-imidazo[4,5-d]pyridazine]
  inhibition at 5 µM: 100%
  inhibition at 10 µM: 100%

## Fc1cccc(-c2nc3cnn(Cc4cc(-c5ccc(Cl)cc5)no4)cc-3n2)c1F [Compound 104, 5-[3-(4-Chloro-phenyl)-isoxazol-5-ylmethyl]-2-(2,3-difluoro-phenyl)-5H-imidazo[4,5-d]pyridazine]
  inhibition at 5 µM: 99.7%
  inhibition at 10 µM: 99.7%

## CCCOc1ccc(-c2cc(Cn3cc4nc(-c5cccc(F)c5F)nc-4cn3)on2)cc1 [Compound 105, 2-(2,3-Difluoro-phenyl)-5-[3-(4-propoxy-phenyl)-isoxazol-5-ylmethyl]-5H-imidazo[4,5-d]pyridazine]
  inhibition at 5 µM: 99.9%
  inhibition at 10 µM: 99.7%

## CCCCOc1ccc(-c2cc(Cn3cc4nc(-c5ccccc5F)nc-4cn3)on2)cc1 [Compound 106, 5-[3-(4-Butoxy-phenyl)-isoxazol-5-ylmethyl]-2-(2-fluoro-phenyl)-5H-imidazo[4,5-d]pyridazine]
  inhibition at 5 µM: 99.3%
  inhibition at 10 µM: 99.7%

## CCCCCOc1ccc(-c2cc(Cn3cc4nc(-c5ccccc5F)nc-4cn3)on2)cc1 [Compound 107, 2-(2-Fluoro-phenyl)-5-[3-(4-pentyloxy-phenyl)-isoxazol-5-ylmethyl]-5H-imidazo[4,5-d]pyridazine]
  inhibition at 5 µM: 98.4%
  inhibition at 10 µM: 99.4%

## Fc1ccccc1-c1nc2cnn(Cc3cc(-c4ccc(OC(F)(F)F)cc4)no3)cc-2n1 [Compound 108, 2-(2-Fluoro-phenyl)-5-[3-(4-trifluoromethoxy-phenyl)-isoxazol-5-ylmethyl]-5H-imidazo[4,5-d]pyridazine]
  inhibition at 5 µM: 99.9%
  inhibition at 10 µM: 100%

## COc1ccc(-c2cc(Cn3cc4nc(-c5ccccc5F)nc-4cn3)on2)cc1 [Compound 109, 2-(2-Fluoro-phenyl)-5-[3-(4-methoxy-phenyl)-isoxazol-5-ylmethyl]-5H-imidazo[4,5-d]pyridazine]
  inhibition at 5 µM: 98%
  inhibition at 10 µM: 95.4%

## CCOc1ccc(-c2cc(Cn3cc4nc(-c5ccccc5F)nc-4cn3)on2)cc1 [Compound 110, 5-[3-(4-Ethoxy-phenyl)-isoxazol-5-ylmethyl]-2-(2-fluoro-phenyl)-55H-imidazo[4,5-d]pyridazine]
  inhibition at 5 µM: 99.4%
  inhibition at 10 µM: 97.4%

## Fc1ccccc1-c1nc2cnn(Cc3cc(-c4ccccc4)no3)cc-2n1 [Compound 111, 2-(2-Fluoro-phenyl)-5-(3-phenyl-isoxazol-5-ylmethyl)-5H-imidazo[4,5-d]pyridazine]
  inhibition at 5 µM: 16%

## CC(C)Oc1ccc(-c2cc(Cn3cc4nc(-c5ccccc5F)nc-4cn3)on2)cc1 [Compound 112, 2-(2-Fluoro-phenyl)-5-[3-(4-isopropoxy-phenyl)-isoxazol-5-ylmethyl]-5H-imidazo[4,5-d]pyridazine]
  inhibition at 5 µM: 80.9%
  inhibition at 10 µM: 85.9%

## Fc1ccccc1-c1nc2cnn(Cc3nc(-c4ccc(Cl)cc4)no3)cc-2n1 [Compound 113, 5-[3-(4-Chloro-phenyl)-[1,2,4]oxadiazol-5-ylmethyl]-2-(2-fluoro-phenyl)-5H-imidazo[4,5-d]pyridazine]
  inhibition at 5 µM: 24.9%
  inhibition at 10 µM: 41.7%
